Assay results taken from ChEMBL document CHEMBL1681651, “A broad spectrum anticancer nucleoside with selective toxicity against human colon cells in vitro” (2011).

Experiments:
Type in all cases: functional
HOP-92 [1] = experiment: Growth inhibition of human HOP92 cells assessed as cell growth at 100 uM after 48 hrs by SRB assay; settings: HOP-92, 48 h, read-out: Activity
NCI-H460 = experiment: Growth inhibition of human NCI-H460 cells assessed as cell growth at 100 uM after 48 hrs by SRB assay; settings: NCI-H460, 48 h, read-out: Activity
UACC-62 = experiment: Growth inhibition of human UACC62 cells assessed as cell growth at 1 mM after 48 hrs by SRB assay; settings: UACC-62, 48 h, read-out: Activity
A549 = experiment: Growth inhibition of human A549 cells assessed as cell growth at 1 uM after 48 hrs by SRB assay; settings: A549, 48 h, read-out: Activity
SK-MEL-2 = experiment: Growth inhibition of human SK-MEL-2 cells assessed as cell growth at 1 uM after 48 hrs by SRB assay; settings: SK-MEL-2, 48 h, read-out: Activity
UACC-257 = experiment: Growth inhibition of human UACC257 cells after 48 hrs by […] growth inhibition assay; settings: UACC-257, 48 h
HOP-92 [2] = experiment: Growth inhibition of human HOP92 cells assessed as cell growth at 0.1 uM after 48 hrs by SRB assay; settings: HOP-92, 48 h, read-out: Activity
SF-295 = experiment: Growth inhibition of human SF295 cells assessed as cell growth at 0.1 uM after 48 hrs by SRB assay; settings: SF-295, 48 h, read-out: Activity
COLO 205 [3] = experiment: Growth inhibition of human COLO205 cells after 48 hrs by […] growth inhibition assay; settings: COLO 205, 48 h
DU-145 = experiment: Growth inhibition of human DU145 cells assessed as cell growth at 1 uM after 48 hrs by SRB assay; settings: DU-145, 48 h, read-out: Activity
HCT-15 = experiment: Growth inhibition of human HCT15 cells assessed as cell growth at 1 mM after 48 hrs by SRB assay; settings: HCT-15, 48 h, read-out: Activity
IGROV-1 [4] = experiment: Growth inhibition of human IGROV1 cells assessed as cell growth at 10 uM after 48 hrs by SRB assay; settings: IGROV-1, 48 h, read-out: Activity
NCI/ADR-RES = experiment: Growth inhibition of human NCI/ADR-RES cells assessed as cell growth at 10 uM after 48 hrs by SRB assay; settings: read-out: Activity
LOX IMVI [5] = experiment: Growth inhibition of human LOXIMVI cells after 48 hrs by […] growth inhibition assay
HCT-116 = experiment: Growth inhibition of human HCT116 cells assessed as cell growth at 100 uM after 48 hrs by SRB assay; settings: HCT-116, 48 h, read-out: Activity
NCI-H23 = experiment: Growth inhibition of human NCI-H23 cells assessed as cell growth at 1 mM after 48 hrs by SRB assay; settings: NCI-H23, 48 h, read-out: Activity
LOX IMVI [6] = experiment: Growth inhibition of human LOXIMVI cells assessed as cell growth at 0.1 uM after 48 hrs by SRB assay; settings: read-out: Activity
786-0 = experiment: Growth inhibition of human 786-0 cells assessed as cell growth at 1 uM after 48 hrs by SRB assay; settings: 786-0, 48 h, read-out: Activity
[7] = Growth inhibition of human […] cells assessed as cell growth at 10 uM after 48 hrs by SRB assay; settings: read-out: Activity
PC-3 = experiment: Growth inhibition of human PC3 cells after 48 hrs by […] growth inhibition assay; settings: PC-3, 48 h, read-out: LC50 (the source's name)
M14 = experiment: Growth inhibition of human M14 cells assessed as cell growth at 100 uM after 48 hrs by SRB assay; settings: M14, 48 h, read-out: Activity
SNB-19 [8] = experiment: Growth inhibition of human SNB19 cells after 48 hrs by […] growth inhibition assay; settings: SNB-19, 48 h
T47D = experiment: Growth inhibition of human T47D cells assessed as cell growth at 1 uM after 48 hrs by SRB assay; settings: read-out: Activity
OVCAR-5 = experiment: Growth inhibition of human OVCAR5 cells assessed as cell growth at 0.1 uM after 48 hrs by SRB assay; settings: OVCAR-5, 48 h, read-out: Activity
CAKI-1 = experiment: Growth inhibition of human Caki1 cells assessed as cell growth at 100 uM after 48 hrs by SRB assay; settings: CAKI-1, 48 h, read-out: Activity
SK-MEL-5 = experiment: Growth inhibition of human SK-MEL-5 cells assessed as cell growth at 1 uM after 48 hrs by SRB assay; settings: SK-MEL-5, 48 h, read-out: Activity
MDA-MB-231 = experiment: Growth inhibition of human MDA-MB-231 cells assessed as cell growth at 100 uM after 48 hrs by SRB assay; settings: MDA-MB-231, 48 h, read-out: Activity
COLO 205 [9] = experiment: Growth inhibition of human COLO205 cells assessed as cell growth at 0.1 uM after 48 hrs by SRB assay; settings: COLO 205, 48 h, read-out: Activity
SK-OV-3 = experiment: Growth inhibition of human SKOV3 cells assessed as cell growth at 100 uM after 48 hrs by SRB assay; settings: SK-OV-3, 48 h, read-out: Activity
HL-60(TB) = experiment: Growth inhibition of human HL-60(TB) cells assessed as cell growth at 10 uM after 48 hrs by SRB assay; settings: HL-60, 48 h, read-out: Activity
SNB-19 [10] = experiment: Growth inhibition of human SNB19 cells assessed as cell growth at 1 mM after 48 hrs by SRB assay; settings: SNB-19, 48 h, read-out: Activity
IGROV-1 [11] = experiment: Growth inhibition of human IGROV1 cells after 48 hrs by […] growth inhibition assay; settings: IGROV-1, 48 h
[12] = read-out: LC50 (the source's name)
[13] = read-out: pLC50 (the source's name) (converted)

CNC(=O)NC[C@H]1O[C@@H](n2cnc3c(NC(=O)Nc4ccccc4)ncnc32)[C@H](O[Si](C)(C)C(C)(C)C)[C@@H]1CC(=O)N(C)OC
growth at 100 µM (HOP-92 [1]): 27% | growth at 100 µM (NCI-H460): 44% | growth at 1000 µM (UACC-62): 39% | growth at 1 µM (A549): 100% | growth at 1 µM (SK-MEL-2): 83% | GI50 (UACC-257; read-out: GI50): 22.6 µM | CC50 (UACC-257; [12]): > 100 µM | TGI (UACC-257; read-out: TGI): > 100 µM | GI50 (UACC-257; read-out: pGI50 (converted)): 22.4 µM | CC50 (UACC-257; [13]): > 100 µM | TGI (UACC-257; read-out: pTGI (converted)): > 100 µM | growth at 0.1 µM (HOP-92 [2]): 80% | growth at 0.1 µM (SF-295): 93% | GI50 (COLO 205 [3]; read-out: GI50): 12.3 µM | CC50 (COLO 205 [3]; [12]): > 100 µM | TGI (COLO 205 [3]; read-out: TGI): > 100 µM | GI50 (COLO 205 [3]; read-out: pGI50 (converted)): 12.3 µM | CC50 (COLO 205 [3]; [13]): > 100 µM | TGI (COLO 205 [3]; read-out: pTGI (converted)): > 100 µM | growth at 1 µM (DU-145): 112% | growth at 1000 µM (HCT-15): 37% | growth at 10 µM (IGROV-1 [4]): 82% | growth at 10 µM (NCI/ADR-RES): 105% | GI50 (LOX IMVI [5]; read-out: GI50): 7.3 µM | CC50 (LOX IMVI [5]; [12]): > 100 µM | TGI (LOX IMVI [5]; read-out: TGI): > 100 µM | GI50 (LOX IMVI [5]; read-out: pGI50 (converted)): 7.24 µM | CC50 (LOX IMVI [5]; [13]): > 100 µM | TGI (LOX IMVI [5]; read-out: pTGI (converted)): > 100 µM | growth at 100 µM (HCT-116): 26% | growth at 1000 µM (NCI-H23): 43% | growth at 0.1 µM (LOX IMVI [6]): 97% | growth at 1 µM (786-0): 92% | growth at 10 µM [7]: 69% | CC50 (PC-3): > 100 µM | growth at 100 µM (M14): 57% | GI50 (SNB-19 [8]; read-out: GI50): > 100 µM | CC50 (SNB-19 [8]; [12]): > 100 µM | TGI (SNB-19 [8]; read-out: TGI): > 100 µM | GI50 (SNB-19 [8]; read-out: pGI50 (converted)): > 100 µM | CC50 (SNB-19 [8]; [13]): > 100 µM | TGI (SNB-19 [8]; read-out: pTGI): > 100 µM | growth at 1 µM (T47D): 89% | growth at 0.1 µM (OVCAR-5): 99% | growth at 100 µM (CAKI-1): 57% | growth at 1 µM (SK-MEL-5): 98% | growth at 100 µM (MDA-MB-231): 55% | growth at 0.1 µM (COLO 205 [9]): 97% | growth at 100 µM (SK-OV-3): 82% | growth at 10 µM (HL-60(TB)): 84% | growth at 1000 µM (SNB-19 [10]): 51% | GI50 (IGROV-1 [11]; read-out: GI50): 3.72 µM | CC50 (IGROV-1 [11]; [12]): > 100 µM | TGI (IGROV-1 [11]; read-out: TGI): 65.7 µM | GI50 (IGROV-1 [11]; read-out: pGI50 (converted)): 3.72 µM | CC50 (IGROV-1 [11]; [13]): > 100 µM | TGI (IGROV-1 [11]; read-out: pTGI (converted)): 66.1 µM
